According to article PMC8998355, “Diversity-Oriented Synthesis Catalyzed by Diethylaminosulfur-Trifluoride—Preparation of New Antitumor Ecdysteroid Derivatives” (International Journal of Molecular Sciences, 2022):

How the values were obtained:
[1] = tested on: L5178YMDR cells (ABCB1-expressing); assay: MTT cytotoxicity assay (24 h, 1 × 10^4 cells); type: cell-based; conditions: Mus musculus, 24 h MTT, n = 3, read-out: Cytotoxicity (IC50 ± SD)
Experimental: (§1) To assess the compounds’ effect on cell growth and viability, we used two different experimental setups of MTT assay. This allowed a comparative evaluation of results obtained from a short-term (24 h) treatment of a relatively higher number (10,000) of cells and those from a long-term (72 h) treatment of a lower cell number (6000), which makes it possible to gain some insight into the cytotoxic vs. cytostatic properties of the compounds. Even though MTT assay is an endpoint detection method, i.e., it provides a single readout of viable cells at the end of the experiment, such a comparison offers a reliable tool to identify antiproliferative activity of compounds that are not cytotoxic.
(§2) L5178Y mouse T-cell lymphoma cells (ECACC Cat. No. 87111908) were obtained from FDA, Silver Spring, MD, USA. These were transfected with pHa MDR1/A retrovirus as described previously. ABCB1-expressing L5178YMDR cells were selected by culturing the infected cells with colchicine. The cell lines were cultured in McCoy’s 5A medium supplemented with 10% heat inactivated horse serum, 2 mM L-glutamine, and penicillin–streptomycin mixture.
(§3) MTT assay was performed in 96-well flat-bottomed microtiter plates as described before. Briefly, a 10 mM concentration stock solution in DMSO was prepared for each compound. These were diluted in 100 μL of McCoy’s 5A medium. Subsequently, 1 × 10^4 (cytotoxicity assay) or 6 × 10^3 (antiproliferative assay) T-cell mouse lymphoma cells in 100 μL of medium were added to each well, except for the medium control wells.
(§4) The culture plates were further incubated at 37 °C for 24 h (cytotoxicity assay) or 72 h (antiproliferative assay); at the end of the incubation period, 20 μL of MTT solution (from a 5 mg/mL stock) was added to each well. After incubation at 37 °C for 4 h, 100 μL of SDS solution (10% in 0.01 M HCI) was added to each well and the plates were further incubated at 37 °C overnight. The cell growth was determined by measuring the optical density at 540 nm (ref. 630 nm) with a Multiscan EX ELISA reader (Thermo Labsystems, Cheshire, WA, USA). IC50 values were calculated by variable slope nonlinear regression using the log(inhibitor) vs. normalized response of GraphPad Prism 5.01 (GraphPad Software Inc., San Diego, CA, USA).

[2] = tested on: L5178Y mouse T-cell lymphoma cells; assay: MTT cytotoxicity assay (24 h, 1 × 10^4 cells); type: cell-based; conditions: 24 h MTT, n = 3, read-out: Cytotoxicity (IC50 ± SD)
Experimental: as §1, §2, §3, §4

[3] = tested on: MRC-5 human embryonal lung fibroblasts; assay: MTT antiproliferative assay (72 h); type: cell-based
Experimental: as §1
(§5) MRC-5 human embryonal lung fibroblasts (CCL-171, ATCC) were acquired from Sigma-Aldrich (Merck, KGaA, Darmstadt, Germany), and were cultured in EMEM medium containing 4.5 g/L glucose and supplemented with a non-essential amino acid mixture, a selection of vitamins, and 10% of FBS.
(§6) The adherent human fibroblast cells were seeded in 100 μL of EMEM medium overnight before each assay. Two-fold serial dilutions of the compounds (0.19–100 µM) were prepared in separate plates, then transferred to the plates containing the adherent cell lines.
as §4

ABCB1 = target: T1, ABCB1 (Homo sapiens, UniProt P08183); assay: ABCB1 inhibition assay (rhodamine 123 accumulation, flow cytometry); type: cell-based; conditions: human, probe rhodamine 123 (5.2 µM), L5178YMDR, rhodamine 123 accumulation, n = 1
T1 construct: expressed in transfected cells; host or cells: L5178Y mouse T-cell lymphoma cells transfected with pHa MDR1/A retrovirus, selected with colchicine (L5178YMDR)
Experimental: (§7) ABCB1 inhibition was determined by the intracellular accumulation of rhodamin 123 as reported before. Briefly, 2 × 10^6 cells/mL of L5178Y and L5178YMDR cell lines were re-suspended in serum-free McCoy’s 5A medium and distributed in 0.5 mL aliquots into Eppendorf centrifuge tubes. The compounds were added at a final concentration of 2 or 20 μM and the samples were incubated for 10 min at room temperature. Tariquidar was used as positive control and DMSO as negative control; for the latter, no activity was observed. Subsequently, 10 μL (5.2 μM final concentration) of the ABCB1 substrate fluorescent dye rhodamine 123 was added and the cells were incubated further for 20 min at 37 °C, washed twice and re-suspended in 1 mL PBS for analysis. Fluorescence of the cell population was measured with a PartecCyFlow® flow cytometer (Partec, Münster, Germany). Mean fluorescence intensity percentage was calculated for the treated vs. untreated L5178YMDR cells. Inhibition percentage for the treated cells was calculated from the corresponding values of the untreated L5178Y and L5178YMDR cells, representing 100% and 0% inhibition, respectively.

ABCB1 transporter = target: T2, ABCB1 transporter (Homo sapiens, UniProt P08183); assay: as above; type: cell-based; conditions: L5178YMDR, 2 or 20 µM
T2 construct: expressed in transfected cells; host or cells: L5178Y mouse T-cell lymphoma cells transfected with pHa MDR1/A retrovirus, selected with colchicine (L5178YMDR)
Experimental: as §7

[4] = MTT cytotoxicity assay (24 h); type: cell-based; conditions: human, MRC-5 human embryonal lung fibroblasts; MRC-5, 24 h MTT, n = 3; read-out: Cytotoxicity (IC50 ± SD)
Experimental: as §1, §5, §6, §4

[5] = tested on: L5178YMDR cells (ABCB1-expressing); assay: MTT antiproliferative assay (72 h, 6 × 10^3 cells); type: cell-based; conditions: Mus musculus, 72 h MTT, n = 3, read-out: Antiproliferative Effect (IC50 ± SD)
Experimental: as §1, §2, §3, §4

[6] = tested on: L5178Y mouse T-cell lymphoma cells; assay: MTT antiproliferative assay (72 h, 6 × 10^3 cells); type: cell-based; conditions: for IC50: Mus musculus
Experimental: as §1, §2, §3, §4

L5178YMDR cells = assay: Combination assay with doxorubicin (checkerboard microplate method, MTT); type: cell-based, mouse; design: Dm (antilog of the x-intercept of the median-effect plot): unit not given here; conditions: for CIavg (weighted average CI): (CI50 + 2CI75 + 3CI90)/6
Experimental: Compounds 7, 10, 11, 13, and 14 had sufficient individual antiproliferative properties for their assessment of chemo-sensitizing activity. This was carried out as an antiproliferative assay on L5178YMDR cells in combination with doxorubicin, arranged according to the checkerboard microplate method.
The checkerboard microplate method was used to evaluate the compounds’ interaction with doxorubicin, as described before. Briefly, doxorubicin (2 mg/mL, Teva Pharmaceuticals, Budapest, Hungary) was serially diluted in the horizontal direction (100 µL per well), and the ecdysteroid was subsequently diluted in the vertical direction (50 µL per well). L5178YMDR cells were re-suspended in culture medium and added to each test well in 50 µL to contain 1 × 10^4 cells per well, and 50 µL of medium was added to the medium control wells. The plates were incubated for 72 h at 37 °C in a CO2 incubator and, at the end of the incubation period, the cell growth was determined by MTT assay as described above. Cell viability data were analyzed by the Calcusyn software using the Chou method, and drug interactions were expressed as combination index (CI) values, in which 0 < CI < 1, CI = 1, and CI > 1 refer to synergism, additivity, and antagonism, respectively.

[7] = drug ratio 23.2:1, with doxorubicin
[8] = drug ratio 46.4:1, with doxorubicin
[9] = drug ratio 92.8:1, with doxorubicin
[10] = drug ratio 185.6:1, with doxorubicin

SMILES: CC(=O)N[C@H]1CC=C2C3=CC(=O)[C@@H]4C[C@H]5OC(C)(C)O[C@H]5C[C@]4(C)[C@H]3CC[C@@]21C [Compound 13]
- IC50 [1]: > 100 µM
- IC50 [2]: > 100 µM
- IC50 ([3]; Homo sapiens, MRC5, MRC-5, 72 h MTT, n = 3, read-out: Antiproliferative Effect (IC50 ± SD)): 12 ± 1.9 µM
- selective antiproliferative activity against both tumor cell lines ([3]; tumor cell lines vs MRC-5): ca. 2.5 times
- inhibition at 20 min, 2 µM (ABCB1; 2 µM): 0.09%
- inhibition at 20 min, 20 µM (ABCB1; 20 µM): -0.01%
- direct ABCB1 / efflux pump inhibition, in words (ABCB1 transporter): inactive
- IC50 at 24 h [4]: 35 ± 3.2 µM
- IC50 [5]: 4.8 ± 0.6 µM
- IC50 ([6]; L5178Y, 72 h MTT, n = 3, read-out: Antiproliferative Effect (IC50 ± SD)): 4.6 ± 0.8 µM
- IC50 ([6]; text summary for both lymphoma cell lines (L5178Y and L5178YMDR), read-out: antiproliferative activity on the lymphoma cell lines (IC50)): ~4.7 µM
- antiproliferative activity stronger than cytotoxicity ([6]; lymphoma cell lines, ratio of cytotoxic to antiproliferative IC50): over 20 times
- interaction with doxorubicin, in words (L5178YMDR cells; checkerboard, 72 h): relevant synergism with doxorubicin already at 50% inhibition
- CI at ED75 (L5178YMDR cells; [7]): 0.55
- CI at ED90 (L5178YMDR cells; [7]): 0.49
- Dm (antilog of the x-intercept of the median-effect plot) (L5178YMDR cells; [7]): 8.17
- CIavg (weighted average CI) (L5178YMDR cells; [7]): 0.53
- CI at ED75 (L5178YMDR cells; [8]): 0.51
- CI at ED90 (L5178YMDR cells; [8]): 0.39
- Dm (antilog of the x-intercept of the median-effect plot) (L5178YMDR cells; [8]): 14.17
- CIavg (weighted average CI) (L5178YMDR cells; [8]): 0.48
- CI at ED75 (L5178YMDR cells; [9]): 0.51
- CI at ED90 (L5178YMDR cells; [9]): 0.47
- Dm (antilog of the x-intercept of the median-effect plot) (L5178YMDR cells; [9]): 17.54
- CIavg (weighted average CI) (L5178YMDR cells; [9]): 0.50
- CI at ED75 (L5178YMDR cells; [10]): 0.68
- CI at ED90 (L5178YMDR cells; [10]): 0.65
- Dm (antilog of the x-intercept of the median-effect plot) (L5178YMDR cells; [10]): 29.89
- CIavg (weighted average CI) (L5178YMDR cells; [10]): 0.67
